Measurements: PMC9138090, “Study on the Neuroprotective, Radical-Scavenging and MAO-B Inhibiting Properties of New Benzimidazole Arylhydrazones as Potential Multi-Target Drugs for the Treatment of Parkinson’s Disease” (Antioxidants, 2022)

Test system: rat brain synaptosomes
Assay: 6-OHDA-induced neurotoxicity, GSH level
Assay type: cell-based
Settings: 10 µM pretreatment, 6-OHDA 150 mmol/L 1 h
Protocol: Synaptosomes were prepared from brains of adult male Wistar rats. The brains were homogenized in 10 volume of cold buffer 1, containing 5 mM HEPES and 0.32 M sucrose (pH = 7.4). The brain homogenate was centrifuged twice at 1000× g for 5 min at 4 °C. The supernatant was collected and centrifuged 3 times at 10,000× g for 20 min at 4 °C. The pellet was re-suspended in ice-cold buffer 1. The synaptosomes were isolated by using Percoll reagent to prepare the gradient. Synaptosomes were re-suspended and incubated in buffer 2, containing 290 mM NaCl, 0.95 mM MgCl2 × 6H2O, 10 mM KCl, 2.4 mM CaCl2 × H2O, 2.1 mM NaH2PO4, 44 mM HEPES, and 13 mM D-glucose. Incubations were performed in a 5% CO2 + 95% O2 atmosphere. The content of synaptosomal protein was determined according to the method of Lowry et al. using bovine serum albumin as a standard.
The metabolism and oxidation of dopamine cause reactive oxygen radicals and reactive quinones to be produced, which could lead to neurotoxicity and neurodegeneration. The synaptosomes were incubated with the compounds (10 µM) for 30 min and then 6-hydroxydopamnine (150 mmol/L) was used to induce neurotoxicity. […] After 1 h, they were centrifuged on a microcentrifuge for 1 min at 15,000 rpm. The precipitates were gently mixed with buffer B and glucose and centrifuged for a second time at 15,000 rpm for 1 min. After the second wash, buffer B and glucose were added to the precipitates.
In the presented experiments, an in vitro assessment of the possible antioxidant and neuroprotective effects of the newly synthetized compounds was performed in a model of 6-OHDA induced toxicity in rat brain synaptosomes. 6-OHDA is a neurotoxicant that structurally resembles dopamine and can be used in different in vivo and in vitro models for neurotoxicity. This model resembles the histological, biochemical, and physiological characteristics of neurodegenerative diseases such as Parkinson’s and Alzheimer’s disease. […] However, their uptake into brain synaptosomes is similar among primates and rodents and they are suitable in vitro models for PD. The main mechanism of 6-OHDA toxicity includes induction of oxidative stress. It undergoes auto-oxidation or metabolic degradation to p-quinone and produces hydrogen peroxide, superoxide, and hydroxyl radicals. The process causes lipid peroxidation, protein oxidation, and DNA oxidation and finally results in oxidative stress and mitochondrial dysfunction. Rat brain synaptosomes were pretreated with compounds 3e, 3h, 3i, 3m, melatonin, and rasagiline (10 μM); after that, the samples were subjected to 6-OHDA (150 mmol/L, 1 h). The protective effects were evaluated by measurement of synaptosomal viability (MTT-test) and GSH levels (Figure 3).

O=C(CCn1c(=S)n(CCC(=O)NN=Cc2cccc(O)c2O)c2ccccc21)NN=Cc1cccc(O)c1O [3h, 3,3′-(2-Thioxo-1H-benzo[d]imidazole-1,3(2H)-diyl)bis(N′-(2,3-dihydroxybenzylidene)propanehydrazide)]
restoration of GSH level vs. 6-OHDA treatment: 62%
